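Values below derive from 48-hour exposures of cells grown in 96-well plates, with endpoints linearly interpolated between the two concentrations bracketing the appropriate inhibition level. Abbreviation: GI50, concentration required for 50% inhibition of growth.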 Calls of active or inactive are those of the source. Cut-off read from the data, not from the text of the source: active = GI50 up to about 1.1 µM and inactive = higher.
Tests used:
Test in all cases: NCI anticancer screen, dose series, 48 h
MDA-MB-435 = test system: MDA-MB-435
SF-268 = test system: SF-268
Hs-578T = test system: Hs-578T
UACC-257 = test system: UACC-257
NCI/ADR-RES = test system: NCI/ADR-RES
MDA-N = test system: MDA-N
HCT-15 = test system: HCT-15
TK-10 = test system: TK-10
IGROV-1 = test system: IGROV-1
SF-295 = test system: SF-295
LOX IMVI = test system: LOX IMVI
M14 = test system: M14
786-0 = test system: 786-0
NCI-H522 = test system: NCI-H522
K562 = test system: K562
RXF 393 = test system: RXF 393
NCI-H226 = test system: NCI-H226
SW-620 = test system: SW-620
EKVX = test system: EKVX
SR = test system: SR

With `C=C1C(=O)OC2CC(C)C(C(O)CC(C)O)=CCC12` (stereo not given) the GI50 (MDA-MB-435) was 19.6 µM (inactive), the GI50 (SF-268) was 14.3 µM (inactive) and the GI50 (Hs-578T) was 20.9 µM (inactive). The GI50 (UACC-257) was 12.9 µM (inactive), the GI50 (NCI/ADR-RES) was 17 µM (inactive) and the GI50 (MDA-N) was 12.4 µM (inactive). The GI50 (HCT-15) was 14.2 µM, the GI50 (TK-10) was 9.14 µM (inactive) and the GI50 (IGROV-1) was 16.8 µM (inactive). The GI50 (SF-295) was 41.2 µM (inactive), the GI50 (LOX IMVI) was 10.6 µM (inactive) and the GI50 (M14) was 15.2 µM (inactive). The GI50 (786-0) was 13.7 µM (inactive), the GI50 (NCI-H522) was 1.61 µM (inactive) and the GI50 (K562) was 14.1 µM (inactive). The GI50 (RXF 393) was 12.5 µM (inactive), the GI50 (NCI-H226) was 26.1 µM (inactive) and the GI50 (SW-620) was 10.4 µM (inactive). The GI50 (EKVX) was 12.5 µM (inactive) and the GI50 (SR) was 8.13 µM (inactive).
In the case of `Cc1c(NC(=O)CSC(=S)N(C)C)c(=O)n(-c2ccccc2)n1C`, the GI50 (MDA-MB-435) is reported as > 100 µM (inactive), the GI50 (SF-268) is reported as > 100 µM (inactive) and the GI50 (Hs-578T) is reported as > 100 µM (inactive). The GI50 (UACC-257) was > 100 µM (inactive), the GI50 (NCI/ADR-RES) was > 100 µM (inactive) and the GI50 (MDA-N) was > 100 µM (inactive). For the same compound, the GI50 (HCT-15) was > 100 µM, the GI50 (TK-10) was > 100 µM (inactive) and the GI50 (IGROV-1) was > 100 µM (inactive). The GI50 (SF-295) was > 100 µM (inactive), the GI50 (LOX IMVI) was > 100 µM (inactive) and the GI50 (M14) was > 100 µM (inactive). For the same compound, the GI50 (786-0) was > 100 µM (inactive), the GI50 (NCI-H522) was > 100 µM (inactive) and the GI50 (K562) was > 100 µM (inactive). For the same compound, the GI50 (RXF 393) was > 100 µM (inactive), the GI50 (NCI-H226) was > 100 µM (inactive) and the GI50 (SW-620) was > 100 µM (inactive). For the same compound, the GI50 (EKVX) was > 100 µM (inactive) and the GI50 (SR) was > 100 µM (inactive).
`COC(=O)c1ccc2c(c1)CCN2C(=O)c1cc2c(cc1Br)OCO2` was tested, and the GI50 (MDA-MB-435) was 0.151 µM (active), the GI50 (SF-268) was 1.8 µM (inactive) and the GI50 (Hs-578T) was 0.658 µM (active). For the same compound, the GI50 (UACC-257) was 0.305 µM (active), the GI50 (NCI/ADR-RES) was 0.342 µM (active) and the GI50 (MDA-N) was 0.0834 µM (active). For the same compound, the GI50 (HCT-15) was 1.82 µM, the GI50 (TK-10) was 2 µM (inactive) and the GI50 (IGROV-1) was 0.614 µM (active). For the same compound, the GI50 (SF-295) was 0.565 µM (active), the GI50 (LOX IMVI) was 3.11 µM (inactive) and the GI50 (M14) was 0.276 µM (active). For the same compound, the GI50 (786-0) was 0.74 µM (active), the GI50 (NCI-H522) was 0.119 µM (active) and the GI50 (K562) was 0.19 µM (active). For the same compound, the GI50 (RXF 393) was 0.863 µM (active), the GI50 (NCI-H226) was 0.277 µM (active) and the GI50 (SW-620) was 0.822 µM (active). The GI50 (EKVX) was 4.66 µM (inactive) and the GI50 (SR) was 0.0817 µM (active).
With `O=C1/C(=C/c2ccccc2O)N=C(c2ccccc2)N1c1nc2ccccc2s1` the GI50 (MDA-MB-435) was 3.1 µM (inactive), the GI50 (SF-268) was 20.2 µM (inactive) and the GI50 (Hs-578T) was 16 µM (inactive). The GI50 (UACC-257) was 19.8 µM (inactive), the GI50 (NCI/ADR-RES) was 14.5 µM (inactive) and the GI50 (MDA-N) was 2.51 µM (inactive). The GI50 (HCT-15) was 6.11 µM, the GI50 (TK-10) was 23.8 µM (inactive) and the GI50 (IGROV-1) was 15.6 µM (inactive). The GI50 (SF-295) was 14.7 µM (inactive), the GI50 (LOX IMVI) was 15.5 µM (inactive) and the GI50 (M14) was 17.1 µM (inactive). For the same compound, the GI50 (786-0) was 14.5 µM (inactive), the GI50 (NCI-H522) was 4.06 µM (inactive) and the GI50 (K562) was 7.85 µM (inactive). The GI50 (RXF 393) was 34.3 µM (inactive), the GI50 (NCI-H226) was 22.7 µM (inactive) and the GI50 (SW-620) was 11.2 µM (inactive). The GI50 (EKVX) was 24.5 µM (inactive) and the GI50 (SR) was 2.24 µM (inactive).
`Brc1ccc(/C(N=N/C(=N\Sc2ccccc2)c2ccc(Br)cc2)=N/Sc2ccccc2)cc1` was tested, and the GI50 (MDA-MB-435) was > 100 µM (inactive), the GI50 (SF-268) was > 100 µM (inactive) and the GI50 (Hs-578T) was > 100 µM (inactive). The GI50 (UACC-257) was > 100 µM (inactive), the GI50 (NCI/ADR-RES) was > 100 µM (inactive) and the GI50 (MDA-N) was > 100 µM (inactive). For the same compound, the GI50 (HCT-15) was > 100 µM, the GI50 (TK-10) was > 100 µM (inactive) and the GI50 (IGROV-1) was > 100 µM (inactive). For the same compound, the GI50 (SF-295) was > 100 µM (inactive), the GI50 (LOX IMVI) was > 100 µM (inactive) and the GI50 (M14) was > 100 µM (inactive). For the same compound, the GI50 (786-0) was > 100 µM (inactive), the GI50 (NCI-H522) was > 100 µM (inactive) and the GI50 (K562) was > 100 µM (inactive). The GI50 (RXF 393) was > 100 µM (inactive), the GI50 (NCI-H226) was > 100 µM (inactive) and the GI50 (SW-620) was > 100 µM (inactive). The GI50 (EKVX) was > 100 µM (inactive) and the GI50 (SR) was > 86.9 µM (inactive).
